One test is filed under the species Homo sapiens. The experiment in a line: Selectivity index, ratio of IC50 for ACAT1 (unknown origin) to IC50 for ACAT2 (unknown origin).
The target in test [1] is T1, Sterol O-acyltransferase 1 (Homo sapiens, UniProt P35610).
T1 sequence (P35610 whole entry): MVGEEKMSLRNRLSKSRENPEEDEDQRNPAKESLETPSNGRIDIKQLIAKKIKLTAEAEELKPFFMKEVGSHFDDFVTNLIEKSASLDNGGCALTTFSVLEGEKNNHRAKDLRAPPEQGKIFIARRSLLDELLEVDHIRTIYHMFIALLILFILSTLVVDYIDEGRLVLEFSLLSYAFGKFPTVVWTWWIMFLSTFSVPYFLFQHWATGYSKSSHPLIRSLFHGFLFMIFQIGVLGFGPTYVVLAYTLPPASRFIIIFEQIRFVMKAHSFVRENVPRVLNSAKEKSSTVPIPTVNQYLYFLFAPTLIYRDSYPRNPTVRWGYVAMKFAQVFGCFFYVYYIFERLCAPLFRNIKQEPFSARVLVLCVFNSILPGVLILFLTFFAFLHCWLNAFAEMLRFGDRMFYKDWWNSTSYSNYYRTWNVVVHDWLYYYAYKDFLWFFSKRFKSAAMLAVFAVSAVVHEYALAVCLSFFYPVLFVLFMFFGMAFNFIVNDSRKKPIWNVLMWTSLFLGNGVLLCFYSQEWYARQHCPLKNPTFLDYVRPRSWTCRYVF
The experiment in a line: Inhibition of ACAT1 (unknown origin).

The target of test [2] is T2, Sterol O-acyltransferase 2 (Homo sapiens, UniProt O75908).
T2 sequence (O75908 whole entry): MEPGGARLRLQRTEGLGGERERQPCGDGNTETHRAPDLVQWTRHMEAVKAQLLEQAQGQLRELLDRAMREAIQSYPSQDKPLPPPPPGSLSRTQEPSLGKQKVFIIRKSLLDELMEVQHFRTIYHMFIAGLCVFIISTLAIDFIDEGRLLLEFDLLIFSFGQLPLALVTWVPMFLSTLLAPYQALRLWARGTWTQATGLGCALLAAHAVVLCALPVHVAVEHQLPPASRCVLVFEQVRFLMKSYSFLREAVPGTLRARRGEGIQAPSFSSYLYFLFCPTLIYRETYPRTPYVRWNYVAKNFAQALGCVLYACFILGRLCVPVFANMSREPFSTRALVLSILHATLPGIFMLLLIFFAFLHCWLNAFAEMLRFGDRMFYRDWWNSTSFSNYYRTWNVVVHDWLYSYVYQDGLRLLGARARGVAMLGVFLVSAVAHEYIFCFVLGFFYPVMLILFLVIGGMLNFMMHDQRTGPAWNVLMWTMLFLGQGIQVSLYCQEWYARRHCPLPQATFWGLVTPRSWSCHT
The experiment in a line: Inhibition of ACAT2 (unknown origin).

In ChEMBL document CHEMBL2396612 (Bioorg Med Chem Lett, 2013) one finds Ratio IC50 and IC50 data, which are given here for two molecules.

The IC50 is the concentration that inhibits the measured activity by half. Higher therefore signals lower potency.

On to `CCCCC(=O)O[C@H]1C[C@H]2[C@]3(C)CO[C@@H](c4ccccc4C)O[C@H]3CC[C@]2(C)[C@H]2[C@@H](O)c3c(cc(-c4cccnc4)oc3=O)O[C@]12C`, for which, in the test listed under Homo sapiens, the Ratio IC50 turned out to be 320. In addition, the results for the IC50 in test [1] and in test [2] were 3200 nM and 10 nM, respectively.

Regarding `C[C@@]12CO[C@@H](c3cccc4ccccc34)O[C@H]1CC[C@@]1(C)[C@H]2C[C@H](OC(=O)c2ccc(C#N)cc2)[C@@]2(C)Oc3cc(-c4cccnc4)oc(=O)c3[C@H](O)[C@H]12`, in the test listed under Homo sapiens, the Ratio IC50 was over 2980. The IC50 was over 69100 nM in test [1] and 23.2 nM in test [2].
